This is an account of results in US11072780B2, “Method of differentiating human pluripotent cells into cardiac fibroblasts” (Wisconsin Alumni Research Foundation, priority 2016, dated 2021).

Data set [1] concerns hPSCs. Nature of the data set: Quantitative RT-PCR time course of GiFGF protocol. The conditions noted are these: qRT-PCR, peaking at day 1. In kind it is cell-based, human. The procedure: Differentiation of hPSCs to cardiac fibroblasts: Human PSCs were dissociated with 1 ml/well Versene solution (Invitrogen) at 37° C. for 5 minutes, and seeded on Matrigel™ (GFR, BD Biosciences) coated 6-well plates at the density of 1.5×10^6 cells/well in mTeSR1 medium supplemented with 10 μM ROCK inhibitor (Y-27632) (Tocris). Cells were cultured for 5-6 days in mTeSR1 medium with medium change daily until the cells reached 100% confluence when differentiation started (day 0). At day 0, the medium was changed to 2.5 ml RPMI+B27 without insulin (Invitrogen) and supplemented with 12 μM CHIR99021 (Tocris) and cells were treated in this medium for 24 hrs (day 1). At day 1, medium was changed to 3 ml RPMI+B27 without insulin and cells were cultured in this medium for another day (day 2). At day 2, the medium was changed to 2.5 ml of the defined fibroblast culture medium (Table 1) supplemented with bFGF (WiCell). Methods using L-glutamine in place of GlutaMAX were also successful. […]
RT-PCR and quantitative RT-PCR: Cell samples were collected using 0.25% trypsin-EDTA (Invitrogen) to remove the cells from cell culture plates. […] Quantitative RT-PCR (Q-PCR) was performed using Taqman PCR Master Mix and Gene Expression Assays (Applied Biosystems) in triplicate for each sample and each gene. […]
For orientation: In qPCR the cycle at which signal appears reflects the starting amount.

Data set [2] relates to hPSCs. Nature of the data set: Flow cytometry of stage-specific progenitors in GiWi protocol. The data set is classed as cell-based, human. The conditions noted are these: after 24 hours of treatment. As for the experimental part: Differentiation of hPSCs to cardiomyocytes using GiWi protocol: Human PSCs were dissociated with 1 ml/well Versene solution at 37° C. for 5 minutes, and seeded on Matrigel™ coated 6-well plates at the density of 1.5×10^6 cells/well in mTeSR1 medium supplemented with 10 μM ROCK inhibitor (Y-27632) (Tocris). Cells were cultured for 5-6 days in mTeSR1 medium until the cells reached 100% confluence when differentiation started (day 0). At day 0, the medium was changed to 2.5 ml RPMI+B27 without insulin (Invitrogen) and supplemented with 12 μM CHIR99021 (Tocris) and cells were treated in this medium for 24 hrs (day 1). At day 1, medium was changed to 3 ml RPMI+B27 without insulin and cells were cultured in this medium for 48 hrs (day 3). […]
Flow Cytometry: Cells were detached from cell culture plates by incubation with 0.25% trypsin-EDTA (Invitrogen) plus 2% chick serum (Sigma) for 5 minutes at 37° C. […] Cells were counted and 0.5-1 million cells were used as the sample size for labeling. […] Data were collected on a FACSCalibur™ flow cytometer (Beckton Dickinson) and analyzed using FlowJo™ software.
Biphasic modulation of the Wnt signaling pathway with small molecules is sufficient to direct the differentiation of monolayer cultured hPSCs to cardiomyocytes^21. […] We first determined the stage-specific mesodermal and cardiac progenitor populations generated by this small molecule (GiWi) protocol^22. […]

For data set [3], the system named is hPSC-derived cardiac mesodermal progenitors. In words: Cardiac fibroblast differentiation induced by bFGF at stage-specific progenitors, flow cytometry at 20 days. The data set is classed as cell-based. The procedure:
Differentiation of hPSCs to cardiac fibroblasts: Human PSCs were dissociated with 1 ml/well Versene solution (Invitrogen) at 37° C. for 5 minutes, and seeded on Matrigel™ (GFR, BD Biosciences) coated 6-well plates at the density of 1.5×10^6 cells/well in mTeSR1 medium supplemented with 10 μM ROCK inhibitor (Y-27632) (Tocris). Cells were cultured for 5-6 days in mTeSR1 medium with medium change daily until the cells reached 100% confluence when differentiation started (day 0). At day 0, the medium was changed to 2.5 ml RPMI+B27 without insulin (Invitrogen) and supplemented with 12 μM CHIR99021 (Tocris) and cells were treated in this medium for 24 hrs (day 1). At day 1, medium was changed to 3 ml RPMI+B27 without insulin and cells were cultured in this medium for another day (day 2). At day 2, the medium was changed to 2.5 ml of the defined fibroblast culture medium (Table 1) supplemented with bFGF (WiCell). Methods using L-glutamine in place of GlutaMAX were also successful. Cells were fed every other day and cultured until day 20 for flow cytometry analysis and subculture of cardiac fibroblasts.
Flow Cytometry: Cells were detached from cell culture plates by incubation with 0.25% trypsin-EDTA (Invitrogen) plus 2% chick serum (Sigma) for 5 minutes at 37° C. Cells were vortexed to disrupt the aggregates followed by neutralization by adding equal volume of EB20 medium (Zhang et al., Circ Res. 2009). Cells were counted and 0.5-1 million cells were used as the sample size for labeling. Cells were fixed in 1% paraformaldehyde in a 37° C. water bath for 10 minutes in the dark. For labeling intracellular markers, cells were permeabilized in ice-cold 90% methanol for 30 minutes on ice. Cells were washed once in FACS buffer (PBS without Ca/Mg2^+, 0.5% BSA, 0.1% NaN3), centrifuged and resuspended in about 50 μl FACS buffer with (for intracellular markers) or without 0.1% Triton X-100. For labeling surface markers, appropriate amounts of the conjugated antibodies were added according to the manufacturer's instruction to the cells in FACS buffer to make the final volume of 100 μl with FACS buffer, and incubated in the dark for 30 minutes at room temperature. Cells were washed once with 3 ml FACS buffer and resuspended in 300-500 μl FACS buffer for analysis. […] Data were collected on a FACSCalibur™ flow cytometer (Beckton Dickinson) and analyzed using FlowJo™ software.
Our goal was to bias the differentiation to generate cardiac fibroblasts rather than cardiomyocytes. […] Following 20 days of differentiation, cells were analyzed by flow cytometry using a specific fibroblast antibody (mouse anti-human fibroblast, clone TE-7) and an antibody to sarcomeric myosin (MF20) expressed in cardiomyocytes. […]

`Cc1c[nH]c(-c2cnc(NCCNc3ccc(C#N)cn3)nc2-c2ccc(Cl)cc2Cl)n1` [CHIR, CHIR99021]: the “early mesodermal gene T expression” value in the data set with hPSCs [1] is “transiently up-regulated”. Also, in the data set on hPSCs [2], the Brachyury expression entry was “expressed in almost all cells”.

Take “bFGF: fibroblast growth factor (WiCell) added to the defined fibroblast medium”: in data set [3] (added on day 2 of differentiation), the “bFGF concentration at which fibroblast marker positive cells peaked” value was determined as 75 ng/mL. Further, the “fibroblast marker positive cells (clone TE-7)” value in data set [3] (bFGF 0-125 ng/ml in CFBM, 20 days of differentiation, flow cytometry) is recorded as “concentration-dependent increase”. Moreover, the cell death entry in data set [3] (higher concentration of bFGF added on day 3 or day 4, after day 6 of differentiation) is on record as “significant cell death”. The “generation of MF20+ cardiomyocytes” value in data set [3] (medium change and bFGF added on day 2 or day 3) is listed as “effectively prevented”.
